Results reported in US20260191968A1, “PROTAC DEGRADERS OF MLLT1 AND/OR MLLT3” (DARK BLUE THERAPEUTICS LTD, priority 2024, published 2026).

Legend:
Format in all cases: cell-based
MLLT1 = target: T1, MLLT1 (Homo sapiens, UniProt Q03111); test: MLLT1 degradation assay in MV4-11 cells (JESS chemiluminescent detection), three concentrations, 24 h; settings: with respect to DMSO control
T1 construct: host or cells: MV4-11
T1 sequence (Q03111 1-559): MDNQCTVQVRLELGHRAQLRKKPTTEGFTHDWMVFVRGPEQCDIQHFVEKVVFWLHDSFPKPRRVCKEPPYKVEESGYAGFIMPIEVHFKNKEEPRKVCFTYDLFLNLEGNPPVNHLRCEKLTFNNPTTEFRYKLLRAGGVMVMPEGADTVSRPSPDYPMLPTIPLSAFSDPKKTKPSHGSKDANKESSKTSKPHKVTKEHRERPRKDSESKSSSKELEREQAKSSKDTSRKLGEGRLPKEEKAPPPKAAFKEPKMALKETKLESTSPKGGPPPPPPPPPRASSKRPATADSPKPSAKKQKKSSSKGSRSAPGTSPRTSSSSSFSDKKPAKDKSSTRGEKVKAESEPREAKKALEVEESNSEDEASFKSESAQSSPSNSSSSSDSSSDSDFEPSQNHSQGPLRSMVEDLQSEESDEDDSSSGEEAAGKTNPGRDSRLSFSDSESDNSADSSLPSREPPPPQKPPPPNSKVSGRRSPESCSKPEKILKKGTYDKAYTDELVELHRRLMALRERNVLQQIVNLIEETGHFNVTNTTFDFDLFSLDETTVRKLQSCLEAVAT
Summary of the method: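 MV4-11 cells treated 24 h at 37° C, 5% CO2 with 1000, 100 and 10 nM compound (0.1% DMSO final). MLLT1 quantified by automated capillary chemiluminescent immunodetection; band peak area expressed as % degradation relative to DMSO control.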

MV4-11 cells [1] = test: MV4-11 cellular proliferative assay, Assay Format A (CellTiter-Glo, 120 hours); settings: Homo sapiens
Method: An MV4-11 proliferation assay was used to test the ability of compounds to reduce cell viability. MV4-11 cells (ATCC #CRL9591) were grown in IMDM medium (11510596, Gibco) supplemented with 10% fetal bovine serum (F7524, Gibco) and 1% Penicillin/Streptomycin (15140-122, Gibco) at 37° C. with 5% CO2. Cells were seeded in 384-well Elplasia plates (4447, Corning) at a density of 50 cells/well and treated with vehicle (DMSO) or compounds (10 serial semi-log dilutions, 30 μM as top concentration).
After 120 hours of treatment, cells were incubated for 10 min at RT with the CellTiter-Glo (CTG) reagent (G7571, Promega). Measurement of the luminescence signal was performed on a microplate reader (Ensight, PerkinElmer). CTG reagent measures the amount of ATP, which is directly proportional to the number of cells, to determine the number of viable cells in culture.
The data were analysed as follows:
where x is the measured raw signal value of a well, (cr) is the median of the measured signal values for the Central Reference (DMSO) wells on a plate, (sr) is the median of the measured signal values for the Scale Reference (reference compound) wells on a plate.
where the experimental set-up assumes the Hill parameters in certain ranges: S0~Central Reference (CR) from normalization (=Bottom), Sinf~Scale Reference (SR) from normalization (=Top), nHill~1, AC50~within the measured concentration range.

MV4-11 cells [2] = test: MV4-11 cellular proliferative assay, Assay Format B (CTG 2.0, 168 h); settings: Homo sapiens, 168 h (7 days), CTG 2.0, read-out: IC50 (MV4-11 cellular proliferative assay, Assay format B)
Summary of the method: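 MV4-11 cells seeded overnight in IMDM + 10% FBS, then exposed to 10-point, 3-fold dilutions from 1 uM or 100 nM top concentration (0.3% DMSO final) for 168 h at 37 °C. CTG 2.0 luminescence read; % viability vs DMSO control fitted by four-parameter logistic regression.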

MLLT1% Degradation @ 0.01 μM (MLLT1)	MLLT1% Degradation @ 0.1 μM (MLLT1)	MLLT1% Degradation @ 1 μM (MLLT1)	IC50 (MV4-11 cells [1])	IC50 (MV4-11 cells [2])	SMILES
A (Category A: A ≥ 75% degradation)	A (Category A: A ≥ 75% degradation)	A (Category A: A ≥ 75% degradation)	≤ 100 nM		CN1CCC[C@@H]1c1cc2cnc(NC(=O)c3ccc(-c4cnn(CCCC#Cc5ccc6c(c5)CN(C5CCC(=O)NC5=O)C6=O)c4)cc3)cc2[nH]1 (stereo partly drawn) [Example 22, 4-(1-(5-(2-(2,6-dioxopiperidin-3-yl)-1-oxoisoindolin-5-yl)pent-4-yn-1-yl)-1H-pyrazol-4-yl)-N-(2-((R)-1-methylpyrrolidin-2-yl)-1H-pyrrolo[3,2-c]pyridin-6-yl)benzamide]
A (Category A: A ≥ 75% degradation)	A (Category A: A ≥ 75% degradation)	A (Category A: A ≥ 75% degradation)	≤ 100 nM		C[C@@H](C#Cc1cccc2c1CN(C1CCC(=O)NC1=O)C2=O)Oc1ccc(C(=O)Nc2cc3[nH]c([C@H]4CCCN4C)cc3cn2)cc1 (stereo partly drawn) [Example 24, 4-(((2S)-4-(2-(2,6-dioxopiperidin-3-yl)-1-oxoisoindolin-4-yl)but-3-yn-2-yl)oxy)-N-(2-((R)-1-methylpyrrolidin-2-yl)-1H-pyrrolo[3,2-c]pyridin-6-yl)benzamide]
A (Category A: A ≥ 75% degradation)	A (Category A: A ≥ 75% degradation)	A (Category A: A ≥ 75% degradation)	≤ 100 nM		C[C@H](C#Cc1cccc2c1CN(C1CCC(=O)NC1=O)C2=O)Oc1ccc(C(=O)Nc2cc3[nH]c([C@H]4CCCN4C)cc3cn2)cc1 (stereo partly drawn) [Example 25, 4-(((2R)-4-(2-(2,6-dioxopiperidin-3-yl)-1-oxoisoindolin-4-yl)but-3-yn-2-yl)oxy)-N-(2-((R)-1-methylpyrrolidin-2-yl)-1H-pyrrolo[3,2-c]pyridin-6-yl)benzamide]
			≤ 100 nM		CN1CCC[C@@H]1c1cc2cnc(NC(=O)CCCC3CN(c4cccc5c4C(=O)N(C4CCC(=O)NC4=O)C5=O)C3)cc2[nH]1 (stereo partly drawn) [Example 48, 4-(1-(2-(2,6-dioxopiperidin-3-yl)-1,3-dioxoisoindolin-4-yl)azetidin-3-yl)-N-(2-((R)-1-methylpyrrolidin-2-yl)-1H-pyrrolo[3,2-c]pyridin-6-yl)butanamide]
A (Category A: A ≥ 75% degradation)	A (Category A: A ≥ 75% degradation)	A (Category A: A ≥ 75% degradation)		≤ 100 nM	CN1CCC[C@@H]1c1cc2cnc(NC(=O)c3ccc(OCCC4CCN(c5cccc6c5CN(C5CCC(=O)NC5=O)C6=O)CC4)c(F)c3F)cc2[nH]1 (stereo partly drawn) [Example 231, 4-(2-(1-(2-(2,6-dioxopiperidin-3-yl)-1-oxoisoindolin-4-yl)piperidin-4-yl)ethoxy)-2,3-difluoro-N-(2-((R)-1-methylpyrrolidin-2-yl)-1H-pyrrolo[3,2-c]pyridin-6-yl)benzamide]

SMILES	MLLT1% Degradation @ 0.01 μM (MLLT1)	MLLT1% Degradation @ 0.1 μM (MLLT1)	MLLT1% Degradation @ 1 μM (MLLT1)	IC50 (MV4-11 cells [1])	IC50 (MV4-11 cells [2])
CN1CCC[C@@H]1c1cc2cnc(NC(=O)c3ccc(-c4ccn(CCCC#Cc5cccc6c5CN(C5CCC(=O)NC5=O)C6=O)n4)cc3)cc2[nH]1 (mixture of isomers) [Example 20, 4-(1-(5-(2-(2,6-dioxopiperidin-3-yl)-1-oxoisoindolin-4-yl)pent-4-yn-1-yl)-1H-pyrazol-3-yl)-N-(2-((R)-1-methylpyrrolidin-2-yl)-1H-pyrrolo[3,2-c]pyridin-6-yl)benzamide]	B (Category B: 50% ≤ B < 75% degradation)	B (Category B: 50% ≤ B < 75% degradation)	C (Category C: 25% ≤ C < 50% degradation)	≤ 100 nM	
CN1CCC[C@@H]1c1cc2cnc(NC(=O)c3ccc(CC4CCN(c5cccc6c5C(=O)N(C5CCC(=O)NC5=O)C6=O)CC4)cc3)cc2[nH]1 (stereo partly drawn) [Example 3, 4-((1-(2-(2,6-dioxopiperidin-3-yl)-1,3-dioxoisoindolin-4-yl)piperidin-4-yl)methyl)-N-(2-((R)-1-methylpyrrolidin-2-yl)-1H-pyrrolo[3,2-c]pyridin-6-yl)benzamide]	C (Category C: 25% ≤ C < 50% degradation)	A (Category A: A ≥ 75% degradation)	A (Category A: A ≥ 75% degradation)	≤ 100 nM	
CN1CCC[C@@H]1c1cc2cnc(NC(=O)c3ccc(CCC4CCN(c5cccc6c5C(=O)N(C5CCC(=O)NC5=O)C6=O)CC4)cc3)cc2[nH]1 (stereo partly drawn) [Example 4, 4-(2-(1-(2-(2,6-dioxopiperidin-3-yl)-1,3-dioxoisoindolin-4-yl)piperidin-4-yl)ethyl)-N-(2-((R)-1-methylpyrrolidin-2-yl)-1H-pyrrolo[3,2-c]pyridin-6-yl)benzamide]	B (Category B: 50% ≤ B < 75% degradation)	A (Category A: A ≥ 75% degradation)	A (Category A: A ≥ 75% degradation)	≤ 100 nM	
CN1CCC[C@@H]1c1cc2cnc(NC(=O)c3ccc(OCCC#Cc4cccc5c4CN(C4CCC(=O)NC4=O)C5=O)cc3)cc2[nH]1 (stereo partly drawn) [Example 19, 4-((4-(2-(2,6-dioxopiperidin-3-yl)-1-oxoisoindolin-4-yl)but-3-yn-1-yl)oxy)-N-(2-((R)-1-methylpyrrolidin-2-yl)-1H-pyrrolo[3,2-c]pyridin-6-yl)benzamide]	B (Category B: 50% ≤ B < 75% degradation)	A (Category A: A ≥ 75% degradation)	A (Category A: A ≥ 75% degradation)	≤ 100 nM	
CN1CCC[C@@H]1c1cc2cnc(NC(=O)c3ccc(-c4cnn(CCCC#Cc5cccc6c5CN(C5CCC(=O)NC5=O)C6=O)c4)cc3)cc2[nH]1 (stereo partly drawn) [Example 21, 4-(1-(5-(2-(2,6-dioxopiperidin-3-yl)-1-oxoisoindolin-4-yl)pent-4-yn-1-yl)-1H-pyrazol-4-yl)-N-(2-((R)-1-methylpyrrolidin-2-yl)-1H-pyrrolo[3,2-c]pyridin-6-yl)benzamide]	A (Category A: A ≥ 75% degradation)	A (Category A: A ≥ 75% degradation)	B (Category B: 50% ≤ B < 75% degradation)	≤ 100 nM	
CN1CCC[C@@H]1c1cc2cnc(NC(=O)CCCCCCNc3cccc4c3C(=O)N(C3CCC(=O)NC3=O)C4=O)cc2[nH]1 (stereo partly drawn) [Example 29, 7-{[2-(2,6-dioxopiperidin-3-yl)-1,3-dioxoisoindol-4-yl]amino}-N-{2-[(2R)-1-methylpyrrolidin-2-yl]-1H-pyrrolo[3,2-c]pyridin-6-yl}heptanamide]	D (Category D: D < 25% degradation)	C (Category C: 25% ≤ C < 50% degradation)	A (Category A: A ≥ 75% degradation)	≤ 100 nM	
CN1CCC[C@@H]1c1[nH]c2cc(NC(=O)CCCCCCNc3cccc4c3C(=O)N(C3CCC(=O)NC3=O)C4=O)ncc2c1Cl (stereo partly drawn) [Example 33, N-{3-chloro-2-[(2R)-1-methylpyrrolidin-2-yl]-1H-pyrrolo[3,2-c]pyridin-6-yl}-7-{[2-(2,6-dioxopiperidin-3-yl)-1,3-dioxoisoindol-4-yl]amino}heptanamide]	B (Category B: 50% ≤ B < 75% degradation)	A (Category A: A ≥ 75% degradation)	A (Category A: A ≥ 75% degradation)	≤ 100 nM	
